The text below walks through data of ChEMBL document CHEMBL5042477, “Potent Cyclic Peptide Inhibitors of FXIIa Discovered by mRNA Display with Genetic Code Reprogramming” (J Med Chem, 2021).

Where a SMILES comes first, the peptide text is derived from it. Bridges are numbered along the chain shown (N, C = ends). [ ]: non-standard residue; d: D form. Phe(2-CF3) = N[C@@H](Cc1ccccc1C(F)(F)F)C(=O)O; Phe(3-CN) = N#Cc1cccc(C[C@H](N)C(=O)O)c1; Phe(3-OMe) = COc1cccc(C[C@H](N)C(=O)O)c1; Phe(4-CN) = N#Cc1ccc(C[C@H](N)C(=O)O)cc1; Phe(2-CN) = N#Cc1ccccc1C[C@H](N)C(=O)O; Phe(2-OMe) = COc1ccccc1C[C@H](N)C(=O)O; Phe(3-Me) = Cc1cccc(C[C@H](N)C(=O)O)c1; 1Nal = N[C@@H](Cc1cccc2ccccc12)C(=O)O; Phe(2-F) = N[C@@H](Cc1ccccc1F)C(=O)O; Phe(2-Me) = Cc1ccccc1C[C@H](N)C(=O)O; hPhe = N[C@@H](CCc1ccccc1)C(=O)O; 2Pal = N[C@@H](Cc1ccccn1)C(=O)O

In this assay the target is T1, Coagulation factor XII (Homo sapiens, UniProt P00748).
T1 sequence (P00748 whole entry): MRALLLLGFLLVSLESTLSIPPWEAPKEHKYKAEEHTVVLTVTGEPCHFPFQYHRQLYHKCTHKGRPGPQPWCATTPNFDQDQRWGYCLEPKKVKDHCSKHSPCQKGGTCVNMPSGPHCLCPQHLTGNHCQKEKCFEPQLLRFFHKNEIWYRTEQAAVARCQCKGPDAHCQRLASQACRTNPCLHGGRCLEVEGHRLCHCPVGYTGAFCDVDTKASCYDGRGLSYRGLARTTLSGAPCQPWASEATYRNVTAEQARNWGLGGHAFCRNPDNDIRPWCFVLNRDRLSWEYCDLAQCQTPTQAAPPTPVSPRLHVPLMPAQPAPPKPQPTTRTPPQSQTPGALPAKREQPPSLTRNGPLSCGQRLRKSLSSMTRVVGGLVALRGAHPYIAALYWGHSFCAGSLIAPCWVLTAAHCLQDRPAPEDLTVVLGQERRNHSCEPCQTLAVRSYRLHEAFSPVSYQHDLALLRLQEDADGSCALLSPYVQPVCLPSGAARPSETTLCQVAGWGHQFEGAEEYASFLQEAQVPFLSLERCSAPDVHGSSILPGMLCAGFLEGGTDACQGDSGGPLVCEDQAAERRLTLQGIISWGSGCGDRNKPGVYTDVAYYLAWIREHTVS
The assay is described as follows: Inhibition of human factor 12a using H-D-Pro-Phe-Arg-p-nitroanilide as chromogenic substrate assessed as liberation of p-nitroaniline measured every 5 mins for 60 min by multimode plate reader analysis.

As to `Cc1cccc(C[C@@H]2NC(=O)[C@H](CCCNC(=N)N)NC(=O)[C@H](CC(C)C)NC(=O)[C@H](Cc3ccc(O)cc3)NC(=O)CSC[C@@H](C(N)=O)NC(=O)CNC(=O)CNC(=O)[C@H](CCCNC(=N)N)NC(=O)[C@H](CC(=O)O)NC(=O)[C@H](CCCCN)NC(=O)[C@@H]3CCCN3C(=O)[C@H](CCCNC(=N)N)NC2=O)c1` ({CH2CO}-YLR[Phe(3-Me)]RPKDRGGC-NH2; thioether N-12), the IC50 – broadly, the concentration at which inhibition is half-maximal – came out at 0.073 µM. To `CC(C)C[C@@H]1NC(=O)[C@H](Cc2ccc(O)cc2)NC(=O)CSC[C@@H](C(N)=O)NC(=O)CNC(=O)CNC(=O)[C@H](CCCNC(=N)N)NC(=O)[C@H](CC(=O)O)NC(=O)[C@H](CCCCN)NC(=O)[C@@H]2CCCN2C(=O)[C@H](CCCNC(=N)N)NC(=O)[C@H](Cc2ccccc2C(F)(F)F)NC(=O)[C@H](CCCNC(=N)N)NC1=O` ({CH2CO}-YLR[Phe(2-CF3)]RPKDRGGC-NH2; thioether N-12) belongs 0.042 µM; to `CC(C)C[C@@H]1NC(=O)[C@H](Cc2ccc(O)cc2)NC(=O)CSC[C@@H](C(N)=O)NC(=O)CNC(=O)CNC(=O)[C@H](CCCNC(=N)N)NC(=O)[C@H](C)NC(=O)[C@H](CCCCN)NC(=O)[C@@H]2CCCN2C(=O)[C@H](CCCNC(=N)N)NC(=O)[C@H](Cc2ccccc2)NC(=O)[C@H](CCCNC(=N)N)NC1=O` ({CH2CO}-YLRFRPKARGGC-NH2; thioether N-12), 0.05 µM; to `CC(C)C[C@@H]1NC(=O)[C@H](Cc2ccccn2)NC(=O)CSC[C@@H](C(N)=O)NC(=O)CNC(=O)CNC(=O)[C@H](CCCNC(=N)N)NC(=O)[C@H](CC(=O)O)NC(=O)[C@H](CCCCN)NC(=O)[C@@H]2CCCN2C(=O)[C@H](CCCNC(=N)N)NC(=O)[C@H](Cc2ccccc2)NC(=O)[C@H](CCCNC(=N)N)NC1=O` ({CH2CO}-[2Pal]LRFRPKDRGGC-NH2; thioether N-12), 11 µM. The figure for `COc1cccc(C[C@@H]2NC(=O)[C@H](CCCNC(=N)N)NC(=O)[C@H](CC(C)C)NC(=O)[C@H](Cc3ccc(O)cc3)NC(=O)CSC[C@@H](C(N)=O)NC(=O)CNC(=O)CNC(=O)[C@H](CCCNC(=N)N)NC(=O)[C@H](CC(=O)O)NC(=O)[C@H](CCCCN)NC(=O)[C@@H]3CCCN3C(=O)[C@H](CCCNC(=N)N)NC2=O)c1` ({CH2CO}-YLR[Phe(3-OMe)]RPKDRGGC-NH2; thioether N-12) is 0.12 µM; for `Cc1ccccc1C[C@@H]1NC(=O)[C@H](CCCNC(=N)N)NC(=O)[C@H](CC(C)C)NC(=O)[C@H](Cc2ccc(O)cc2)NC(=O)CSC[C@@H](C(N)=O)NC(=O)CNC(=O)CNC(=O)[C@H](CCCNC(=N)N)NC(=O)[C@H](CC(=O)O)NC(=O)[C@H](CCCCN)NC(=O)[C@@H]2CCCN2C(=O)[C@H](CCCNC(=N)N)NC1=O` ({CH2CO}-YLR[Phe(2-Me)]RPKDRGGC-NH2; thioether N-12) it is 0.043 µM; for `CC(C)C[C@@H]1NC(=O)[C@H](CCc2ccccc2)NC(=O)CSC[C@@H](C(N)=O)NC(=O)CNC(=O)CNC(=O)[C@H](CCCNC(=N)N)NC(=O)[C@H](CC(=O)O)NC(=O)[C@H](CCCCN)NC(=O)[C@@H]2CCCN2C(=O)[C@H](CCCNC(=N)N)NC(=O)[C@H](Cc2ccccc2)NC(=O)[C@H](CCCNC(=N)N)NC1=O` ({CH2CO}-[hPhe]LRFRPKDRGGC-NH2; thioether N-12) it is 410 µM.

For `COc1ccccc1C[C@@H]1NC(=O)[C@H](CCCNC(=N)N)NC(=O)[C@H](CC(C)C)NC(=O)[C@H](Cc2ccc(O)cc2)NC(=O)CSC[C@@H](C(N)=O)NC(=O)CNC(=O)CNC(=O)[C@H](CCCNC(=N)N)NC(=O)[C@H](CC(=O)O)NC(=O)[C@H](CCCCN)NC(=O)[C@@H]2CCCN2C(=O)[C@H](CCCNC(=N)N)NC1=O` ({CH2CO}-YLR[Phe(2-OMe)]RPKDRGGC-NH2; thioether N-12), the IC50 stood at 0.06 µM. For the compound `CC(C)C[C@@H]1NC(=O)[C@H](Cc2ccc(O)cc2)NC(=O)CSC[C@@H](C(N)=O)NC(=O)CNC(=O)CNC(=O)[C@H](CCCNC(=N)N)NC(=O)[C@H](CC(=O)O)NC(=O)[C@H](CCCCN)NC(=O)[C@@H]2CCCN2C(=O)[C@H](CCCNC(=N)N)NC(=O)[C@H](Cc2ccccn2)NC(=O)[C@H](CCCNC(=N)N)NC1=O` ({CH2CO}-YLR[2Pal]RPKDRGGC-NH2; thioether N-12), the half-maximal inhibitory concentration (IC50) is 0.096 µM. The figure for `CC(C)C[C@@H]1NC(=O)[C@H](Cc2ccc(O)cc2)NC(=O)CSC[C@@H](C(N)=O)NC(=O)CNC(=O)CNC(=O)[C@H](CCCNC(=N)N)NC(=O)[C@H](CC(=O)O)NC(=O)[C@H](CCCCN)NC(=O)[C@@H]2CCCN2C(=O)[C@H](CCCCN)NC(=O)[C@H](Cc2ccccc2)NC(=O)[C@H](CCCNC(=N)N)NC1=O` ({CH2CO}-YLRFKPKDRGGC-NH2; thioether N-12) is 0.065 µM; for `CC(C)C[C@@H]1NC(=O)[C@H](Cc2ccccc2F)NC(=O)CSC[C@@H](C(N)=O)NC(=O)CNC(=O)CNC(=O)[C@H](CCCNC(=N)N)NC(=O)[C@H](CC(=O)O)NC(=O)[C@H](CCCCN)NC(=O)[C@@H]2CCCN2C(=O)[C@H](CCCNC(=N)N)NC(=O)[C@H](Cc2ccccc2)NC(=O)[C@H](CCCNC(=N)N)NC1=O` ({CH2CO}-[Phe(2-F)]LRFRPKDRGGC-NH2; thioether N-12) it is 0.35 µM.

For `COc1ccc(C[C@@H]2NC(=O)CSC[C@@H](C(N)=O)NC(=O)CNC(=O)CNC(=O)[C@H](CCCNC(=N)N)NC(=O)[C@H](CC(=O)O)NC(=O)[C@H](CCCCN)NC(=O)[C@@H]3CCCN3C(=O)[C@H](CCCNC(=N)N)NC(=O)[C@H](Cc3ccccc3)NC(=O)[C@H](CCCNC(=N)N)NC(=O)[C@H](CC(C)C)NC2=O)cc1` ({CH2CO}-Y(Me)LRFRPKDRGGC-NH2; thioether N-12), the IC50 stood at 0.53 µM.

As for `COc1ccccc1C[C@@H]1NC(=O)CSC[C@@H](C(N)=O)NC(=O)CNC(=O)CNC(=O)[C@H](CCCNC(=N)N)NC(=O)[C@H](CC(=O)O)NC(=O)[C@H](CCCCN)NC(=O)[C@@H]2CCCN2C(=O)[C@H](CCCNC(=N)N)NC(=O)[C@H](Cc2ccccc2)NC(=O)[C@H](CCCNC(=N)N)NC(=O)[C@H](CC(C)C)NC1=O` ({CH2CO}-[Phe(2-OMe)]LRFRPKDRGGC-NH2; thioether N-12), the IC50 was found to be 400 µM.

For `CC(C)C[C@@H]1NC(=O)[C@H](Cc2ccc(O)cc2)NC(=O)CSC[C@@H](C(N)=O)NC(=O)CNC(=O)CNC(=O)[C@H](CCCNC(=N)N)NC(=O)[C@H](CC(=O)O)NC(=O)[C@H](CCCCN)NC(=O)[C@@H]2CCCN2C(=O)[C@H](CCCNC(=N)N)NC(=O)[C@H](Cc2ccccc2C#N)NC(=O)[C@H](CCCNC(=N)N)NC1=O` ({CH2CO}-YLR[Phe(2-CN)]RPKDRGGC-NH2; thioether N-12), the IC50 turned out to be 0.12 µM. `CC(C)C[C@@H]1NC(=O)[C@H](Cc2ccc(O)cc2)NC(=O)CSC[C@@H](C(N)=O)NC(=O)CNC(=O)CNC(=O)[C@H](CCCNC(=N)N)NC(=O)[C@H](CC(=O)O)NC(=O)[C@H](CCCCN)NC(=O)[C@@H]2CCCN2C(=O)[C@H](CCCNC(=N)N)NC(=O)[C@H](Cc2cccc3ccccc23)NC(=O)[C@H](CCCNC(=N)N)NC1=O` ({CH2CO}-YLR[1Nal]RPKDRGGC-NH2; thioether N-12): the IC50 worked out at 0.068 µM.

Consider `CC(C)C[C@@H]1NC(=O)[C@H](Cc2ccc(O)cc2)NC(=O)CSC[C@@H](C(N)=O)NC(=O)[C@H](C)NC(=O)CNC(=O)[C@H](CCCNC(=N)N)NC(=O)[C@H](CC(=O)O)NC(=O)[C@H](CCCCN)NC(=O)[C@@H]2CCCN2C(=O)[C@H](CCCNC(=N)N)NC(=O)[C@H](Cc2ccccc2)NC(=O)[C@H](CCCNC(=N)N)NC1=O` ({CH2CO}-YLRFRPKDRGAC-NH2; thioether N-12), for which the IC50 was determined as 15 µM. The figure for `CC(C)C[C@@H]1NC(=O)[C@H](Cc2ccc(C#N)cc2)NC(=O)CSC[C@@H](C(N)=O)NC(=O)CNC(=O)CNC(=O)[C@H](CCCNC(=N)N)NC(=O)[C@H](CC(=O)O)NC(=O)[C@H](CCCCN)NC(=O)[C@@H]2CCCN2C(=O)[C@H](CCCNC(=N)N)NC(=O)[C@H](Cc2ccccc2)NC(=O)[C@H](CCCNC(=N)N)NC1=O` ({CH2CO}-[Phe(4-CN)]LRFRPKDRGGC-NH2; thioether N-12) is 8.1 µM; for `CC(C)C[C@@H]1NC(=O)[C@H](Cc2ccc(O)cc2)NC(=O)CSC[C@@H](C(N)=O)NC(=O)CNC(=O)CNC(=O)[C@H](CCCNC(=N)N)NC(=O)[C@H](CC(=O)O)NC(=O)[C@H](CCCCN)NC(=O)[C@@H]2CCCN2C(=O)[C@H](CCCNC(=N)N)NC(=O)[C@H](Cc2cccc(C#N)c2)NC(=O)[C@H](CCCNC(=N)N)NC1=O` ({CH2CO}-YLR[Phe(3-CN)]RPKDRGGC-NH2; thioether N-12) it is 0.16 µM.

For the compound `CC(C)C[C@@H]1NC(=O)[C@H](C(C)C)NC(=O)CSC[C@@H](C(N)=O)NC(=O)CNC(=O)CNC(=O)[C@H](CCCNC(=N)N)NC(=O)[C@H](CC(=O)O)NC(=O)[C@H](CCCCN)NC(=O)[C@@H]2CCCN2C(=O)[C@H](CCCNC(=N)N)NC(=O)[C@H](Cc2ccccc2)NC(=O)[C@H](CCCNC(=N)N)NC1=O` ({CH2CO}-VLRFRPKDRGGC-NH2; thioether N-12), the IC50 stood at 210 µM. The figure for `CC(C)C[C@@H]1NC(=O)[C@H](Cc2ccc(O)cc2)NC(=O)CSC[C@@H](C(N)=O)NC(=O)CNC(=O)CNC(=O)[C@H](C)NC(=O)[C@H](CC(N)=O)NC(=O)[C@H]([C@@H](C)O)NC(=O)[C@@H]2CCCN2C(=O)[C@H](CCCCN)NC(=O)[C@H](CC(C)C)NC(=O)[C@H](CCCNC(=N)N)NC1=O` ({CH2CO}-YLRLKPTNAGGC-NH2; thioether N-12) is 1 µM.
